Data on 12 compounds can be found in the NIST ThermoML archive (doi:10.1021/je400874d).

± gives the expanded uncertainty stated by the source.

The conditions of data set [1]: DTA; for Normal melting temperature: Crystal 1.
Data set [2] can be described thus: Molar enthalpy of transition or fusion. Particulars: DSC.

`CCCCC(=O)[O-].[K+]` [potassium pentanoate]: the Normal melting temperature in data set [1] amounted to 443.6 ± 0.5 °C. Besides, the Triple point temperature in data set [1] (Crystal 2) turned out to be 585.4 ± 0.5 K; in data set [1] (Crystal 3), 397.6 ± 0.5 K. Further, the figures for the “Molar enthalpy of transition or fusion” value in data set [2] (Crystal 1), in data set [2] (Crystal 2) and in data set [2] (Crystal 3) were 1.14 ± 0.0669 kcal/mol, 4.16 ± 0.134 kcal/mol and 0.0938 ± 0.0311 kcal/mol, respectively.
On to `CC(=O)[O-].[K+]` [potassium ethanoate], for which, in data set [1], the Normal melting temperature turned out to be 305.5 ± 0.5 °C. Besides, the results for the Triple point temperature in data set [1] (Crystal 2) and in data set [1] (Crystal 3) were 425 ± 1 K and 331.8 ± 0.5 K, respectively. Further, the “Molar enthalpy of transition or fusion” value in data set [2] (Crystal 1) was 3.92 ± 0.117 kcal/mol; in data set [2] (Crystal 2), 0.0704 ± 0.0234 kcal/mol; in data set [2] (Crystal 3), 0.0164 ± 0.0234 kcal/mol.
`CCC(=O)[O-].[K+]` [potassium propanoate]: the Normal melting temperature in data set [1] came to 363.8 ± 0.5 °C. In addition, in data set [1] (Crystal 2), the Triple point temperature was determined as 352.1 ± 0.5 K. In addition, the “Molar enthalpy of transition or fusion” value in data set [2] (Crystal 1) stood at 4.88 ± 0.134 kcal/mol; in data set [2] (Crystal 2) it was 0.429 ± 0.0263 kcal/mol.
`CCCCCCCCC(=O)[O-].[K+]` [potassium nonanoate]: the Normal melting temperature in data set [1] amounted to 431.4 ± 0.5 °C. Further, the Triple point temperature was 544.9 ± 0.5 K in data set [1] (Crystal 2) and 367.6 ± 0.5 K in data set [1] (Crystal 3). Besides, the “Molar enthalpy of transition or fusion” value amounted to 0.469 ± 0.0478 kcal/mol in data set [2] (Crystal 1), 3.47 ± 0.141 kcal/mol in data set [2] (Crystal 2) and 3.75 ± 0.141 kcal/mol in data set [2] (Crystal 3).
With `CCCCCC(=O)[O-].[K+]` [potassium hexanoate], the Normal melting temperature in data set [1] came to 450.5 ± 0.8 °C. In addition, the Triple point temperature in data set [1] (Crystal 2) turned out to be 582.4 ± 0.5 K. The entries for the “Molar enthalpy of transition or fusion” value in data set [2] (Crystal 1) and in data set [2] (Crystal 2) were 0.922 ± 0.0359 kcal/mol and 3.98 ± 0.11 kcal/mol, respectively.
Consider `CCCCCCCC(=O)[O-].[K+]` [potassium octanoate], for which the Normal melting temperature in data set [1] amounted to 435.5 ± 0.5 °C. In addition, the Triple point temperature in data set [1] (Crystal 2) was determined as 562.8 ± 0.5 K; in data set [1] (Crystal 3) it was 327.8 ± 0.5 K. For the same compound, the “Molar enthalpy of transition or fusion” value was determined as 0.523 ± 0.043 kcal/mol in data set [2] (Crystal 1), 4.01 ± 0.131 kcal/mol in data set [2] (Crystal 2) and 2.4 ± 0.086 kcal/mol in data set [2] (Crystal 3).
In the case of `O=C[O-].[K+]` [potassium formate], the Normal melting temperature in data set [1] was 169.1 ± 0.5 °C. Further, the Triple point temperature in data set [1] (Crystal 2) was determined as 415.8 ± 0.5 K. The “Molar enthalpy of transition or fusion” value was 2.79 ± 0.1 kcal/mol in data set [2] (Crystal 1) and 0.137 ± 0.0311 kcal/mol in data set [2] (Crystal 2).
Turning to `CCCCCCCCCCCC(=O)[O-].[K+]` [dodecanoic acid, potassium salt], the Normal melting temperature in data set [1] stood at 399 ± 0.5 °C. Also, the Triple point temperature in data set [1] (Crystal 2) was found to be 543.4 ± 0.5 K; in data set [1] (Crystal 3), 489 ± 1 K; in data set [1] (Crystal 4), 405.5 ± 0.5 K; in data set [1] (Crystal 5) it was 328.1 ± 0.5 K. Also, the “Molar enthalpy of transition or fusion” value in data set [2] (Crystal 1) came out at 0.342 ± 0.0574 kcal/mol; in data set [2] (Crystal 2), 2.79 ± 0.115 kcal/mol; in data set [2] (Crystal 3) it was 1.31 ± 0.0574 kcal/mol; in data set [2] (Crystal 4), 2.28 ± 0.115 kcal/mol; in data set [2] (Crystal 5), 2.96 ± 0.115 kcal/mol.
As for `CCCCCCCCCCC(=O)[O-].[K+]` [potassium undecanoate], the Normal melting temperature in data set [1] came out at 407.6 ± 0.5 °C. In addition, the Triple point temperature came out at 542.5 ± 0.5 K in data set [1] (Crystal 2), 410 ± 1 K in data set [1] (Crystal 3) and 354.6 ± 0.5 K in data set [1] (Crystal 4). The “Molar enthalpy of transition or fusion” value in data set [2] (Crystal 1) came out at 0.375 ± 0.0526 kcal/mol; in data set [2] (Crystal 2), 2.9 ± 0.108 kcal/mol; in data set [2] (Crystal 3) it was 2.15 ± 0.108 kcal/mol; in data set [2] (Crystal 4) it was 2.95 ± 0.108 kcal/mol.
As for `CCCCCCCCCC(=O)[O-].[K+]` [potassium decanoate], the Normal melting temperature in data set [1] turned out to be 418.4 ± 0.5 °C. The Triple point temperature in data set [1] (Crystal 2) came to 546.5 ± 0.5 K; in data set [1] (Crystal 3) it was 528 ± 1 K; in data set [1] (Crystal 4), 383 ± 1 K; in data set [1] (Crystal 5), 346.3 ± 0.5 K. Also, the “Molar enthalpy of transition or fusion” value in data set [2] (Crystal 1) worked out at 0.402 ± 0.0502 kcal/mol; in data set [2] (Crystal 4) it was 0.855 ± 0.0502 kcal/mol; in data set [2] (Crystal 5) it was 1.36 ± 0.1 kcal/mol.
For the compound `CCCC(=O)[O-].[K+]` [potassium butanoate], the Normal melting temperature in data set [1] was 394 ± 0.5 °C. Moreover, the Triple point temperature came out at 623.1 ± 0.5 K in data set [1] (Crystal 2), 550 ± 1 K in data set [1] (Crystal 3) and 454.7 ± 0.5 K in data set [1] (Crystal 4). The “Molar enthalpy of transition or fusion” value came out at 1.18 ± 0.0598 kcal/mol in data set [2] (Crystal 1), 2.56 ± 0.0908 kcal/mol in data set [2] (Crystal 2), 0.814 ± 0.0598 kcal/mol in data set [2] (Crystal 3) and 0.166 ± 0.0311 kcal/mol in data set [2] (Crystal 4).
In the case of `CCCCCCC(=O)[O-].[K+]` [potassium heptanoate], the Normal melting temperature in data set [1] stood at 449 ± 1 °C. Also, the Triple point temperature in data set [1] (Crystal 2) was determined as 571 ± 0.5 K; in data set [1] (Crystal 3) it was 333.7 ± 0.5 K. Also, the “Molar enthalpy of transition or fusion” value in data set [2] (Crystal 1) is 0.804 ± 0.0813 kcal/mol; in data set [2] (Crystal 2), 4.22 ± 0.12 kcal/mol; in data set [2] (Crystal 3), 3.14 ± 0.12 kcal/mol.
